# Earlier results in US20050272755A1, “Method for treating abnormal cell growth” (priority 2004, published 2005).
# Where a name gives a salt, the structure may show the parent alone. Read-outs that look alike come from different tables or passages of the source.
# Assays:
# [1] = tested on: colorectal cancer; conditions: colorectal cancer patients resistant to 5-FU
# [2] = tested on: metastatic colorectal cancer
SMILES,survival compared with 5-FU/FA best infusional regimens [1],survival compared with supportive care only [1],median survival ([2]; European trial),median survival ([2]; US trial),grade 3-4 toxicity: diarrhea ([2]; capecitabine treatment arms),grade 3-4 toxicity: hand-foot syndrome ([2]; capecitabine treatment arms),"Overall response rate ([2]; first of the two phase III studies ('respectively'; Europe N=602 named first), capecitabine 2500 mg/m^2/day for 14 days every 3 weeks)",Overall response rate ([2]; second of the two phase III studies ('respectively'; US N=605 named second))
"CCc1c2c(nc3ccc(OC(=O)N4CCC(N5CCCCC5)CC4)cc13)-c1cc3c(c(=O)n1C2)COC(=O)[C@]3(O)CC [CPT-11, irinotecan hydrochloride trihydrate]",longer survival,longer survival,–,–,–,–,–,–
"CCCCCOC(=O)Nc1nc(=O)n([C@@H]2O[C@H](C)[C@@H](O)[C@H]2O)cc1F [capecitabine, 5′-deoxy-5-fluoro-N-[(pentyloxy)-carbonyl]-cytidine]",–,–,13.3 months,12.5 months,14%,17%,21%,21%
